Data: patent publication US9708247B2, “Modulators of the eIF2alpha pathway” (The Regents of the University of California, priority 2013, dated 2017)
Read-outs that look alike come from different tables or passages of the source.

Legend:
RPMI8226 cells = assay: Polysome gradient analysis in RPMI8226 cells; format: cell-based, human; conditions: ER-stressed (5 μg/ml tunicamycin) and un-stressed cells, 1 μM ISRIB
ATF4 luciferase reporter = ATF4 luciferase reporter assay (Cell-luc) in HEK293T cells; format: cell-based, human
Excerpt: FIGS. 1A-1C. […]
To identify inhibitors of PERK signaling, we engineered a reporter that allows monitoring of PERK activation in living cells. To this end, we constructed a retroviral vector containing the open-reading frame of firefly luciferase fused to the 5′UTR of ATF4 mRNA (FIG. 1A), which contains two short open-reading frames (uORFs) that control ATF4 translation in a stress-dependent manner. After infection, we established a HEK293T cell line harboring the stably integrated reporter. […] This format was used to screen 106,281 compounds covering a wide chemical space. We identified 460 hits (0.43%) (FIG. 1C), which were further validated in an 8-point dose-response assay using the same reporter. We further triaged the compounds by discarding inhibitors that also affected the IRE1 branch of the UPR using an XBP1-luciferase splicing reporter. […] We next used an orthogonal secondary screen that employed a different reporter (bi-cistronic ATF4-dGFPIRES-mCherry) stably integrated into a different cell line (U20S cells). The read-out of this latter screen was microscopy-based, which allowed us to simultaneously assess acute toxicity by cell counting, further reducing the number of viable hits to 77. As a tertiary screen, we tested compounds for their ability to inhibit ER stress-elicited induction of endogenous ATF4 by Western blot analysis. Twenty-eight compounds passed this test and were analyzed further.
ATF4 reporters were constructed by fusing the human full-length ATF4 5′-UTR (NCBI Accession BC022088.2) in front of the firefly luciferase (FLuc) or a destabilized eGFP (dEGFP) coding sequences lacking the initiator methionine.
The ATF4-FLuc reporter was generated by cloning a PCR-product containing the ATF4 full-length 5′-UTR (from +1 position a the transcription start site down to one nucleotide after the terminator codon of the second uORF) flanked by KpnI/XhoI and BglII sites at the 5′ and 3′ ends, respectively, into the KpnI-BglII sites of pCAX-F-XBP1-Luc. The resulting construct, pCAX-ATF4-FLuc, was then digested with BamHI, blunted with T4 DNA polymerase, and then digested with XhoI. The resulting fragment was then subcloned into the retroviral expression vector pLPCX (Clontech) after digesting it with HindIII, blunting with T4 DNA polymerase and then digesting with XhoI to generate pLPCX-ATF4-FLuc (DAA-312). DAA-312 was used to produce recombinant retroviruses using standard methods and the resulting viral supernatant was used to transduce HEK293T cells, which were then subsequently selected with puromycin to generate a stable cell line employed in the primary screen.
HEK293T cells carrying the ATF4 luciferase reporter were plated on poly-lysine coated 384 well plates (Greiner) at 30,000 cells per well. […] Luminescence was measured using One Glo (Promega) as specified by the manufacturer. […] Thus, these were considered unique to the PERK branch and were cherry-picked for further analysis.

`O=C(COc1ccc(Cl)cc1)NC1CCC(NC(=O)COc2ccc(Cl)cc2)CC1` (stereo not drawn) [ISRIB] was tested, and the “translation in multiple myeloma cells” value (RPMI8226 cells) was “increased translation”, the IC50 (ATF4 luciferase reporter; cultured HEK293T cells, 2 μg/ml tunicamycin, 7 h, synthesized isomers, read-out: IC50, inhibition of the ATF4-luciferase reporter) was 5 nM and the IC50 (ATF4 luciferase reporter; screening library sample, likely a mixture of the two stereoisomers, read-out: IC50 of the library compound) was 40 nM.
